Assay [1] is described as follows: Inhibition of wild type HIV-1 clade B NL4-3 Gag polyprotein SP1 infected in human MT4 cells. As to conditions: Human immunodeficiency virus 1, clade B NL4-3, MT4. Format: cell-based.
Assay [2] in a line: Inhibition of bevirimat-resistant HIV1 clade B NL4-3 CA-SP1 V370A mutant infected in human MT4 cells. The conditions noted are these: Human immunodeficiency virus 1, clade B NL4-3, MT4. Format: cell-based.
The nature of assay [3]: Inhibition of bevirimat-resistant HIV1 clade B NL4-3 CA-SP1 T371A mutant infected in human MT4 cells. The conditions noted are these: Human immunodeficiency virus 1, clade B NL4-3, MT4. The class given is cell-based.
A short description of assay [4]: Inhibition of bevirimat-resistant HIV1 clade B NL4-3 CA-SP1 Q369H mutant infected in human MT4 cells. The class given is cell-based. The conditions noted are these: Human immunodeficiency virus 1, clade B NL4-3, MT4.
Assay [5] is described as follows: Inhibition of bevirimat-resistant HIV-1 clade B isolate ASJM108 Gag V370A mutant infected in human PBMC after 7 days by scintillation counting method. As to conditions: Human immunodeficiency virus 1, clade B isolate ASJM108, 168 h.
Assay [6] deals with Human immunodeficiency virus 1. In words: Inhibition of HIV1 Gag CA-SP1 cleavage infected in human PBMC at 10 uM measured after 8 days post infection by Western blot analysis.
Assay [7] in a line: Inhibition of bevirimat-resistant HIV-1 clade A isolate I-2496 V370A mutant infected in human PBMC after 7 days by scintillation counting method. As to conditions: Human immunodeficiency virus 1, clade A isolate I-2496, 168 h.
The nature of assay [8]: Inhibition of bevirimat-resistant HIV-1 clade B isolate CC1/85 CA-SP1 V370A mutant infected in human PBMC measured after 7 days by scintillation counting method. The conditions noted are these: Human immunodeficiency virus 1, clade B isolate CC1/85, 168 h.
Assay [9] concerns Human immunodeficiency virus 1. In words: Ratio of compound effect in presence of 40% human serum to compound effect in absence of serum for antiviral activity against HIV1 by cell based assay. The class given is functional.

Usually IC50 stands for the concentration that gives 50% inhibition.

Activity calls are given as the source filed them. The calls are words filed in the database; no cut-off is given here.

In the case of `CC(C)C1=C2[C@H]3CC[C@@H]4[C@@]5(C)CC[C@H](OC(=O)CC(C)(C)C(=O)O)C(C)(C)[C@@H]5CC[C@@]4(C)[C@]3(C)CC[C@@]2(C(=O)C(=O)NC2CCCCC2)CC1=O`, the IC50 in assay [1] came to 0.028 µM; in assay [2], 0.329 µM.

Regarding `CC(C)C1=C2[C@H]3CC[C@@H]4[C@@]5(C)CC[C@H](OC(=O)CC(C)(C)C(=O)O)C(C)(C)[C@@H]5CC[C@@]4(C)[C@]3(C)CC[C@@]2(C(=O)C(=O)NC2(c3ccc(Cl)cc3)CCCC2)CC1=O`, the IC50 in assay [1] is 0.066 µM; in assay [2] it was 0.11 µM; in assay [3] it was 0.033 µM; in assay [4], 0.1 µM.

For the compound `CC(C)C1=C2[C@H]3CC[C@@H]4[C@@]5(C)CC[C@H](OC(=O)CC(C)(C)C(=O)O)C(C)(C)[C@@H]5CC[C@@]4(C)[C@]3(C)CC[C@@]2(C(=O)C(=O)NC(C)(C)c2ccc(Cl)cc2)CC1=O`, the IC50 in assay [1] was determined as 0.019 µM; in assay [2], 0.017 µM; in assay [3], 0.011 µM; in assay [4], 0.017 µM.

Consider `CC(C)C1=C2[C@H]3CC[C@@H]4[C@@]5(C)CC[C@H](OC(=O)CC(C)(C)C(=O)O)C(C)(C)[C@@H]5CC[C@@]4(C)[C@]3(C)CC[C@@]2(C(=O)C(=O)O)CC1=O`, for which the IC50 in assay [1] is above 10 µM.

On to `CNC(=O)C(=O)[C@@]12CC[C@]3(C)[C@H](CC[C@@H]4[C@@]5(C)CC[C@H](OC(=O)CC(C)(C)C(=O)O)C(C)(C)[C@@H]5CC[C@]43C)C1=C(C(C)C)C(=O)C2`, for which the figures for the IC50 in assay [1] and in assay [2] were 1.32 µM and 6.67 µM, respectively.

As for `CC(C)C1=C2[C@H]3CC[C@@H]4[C@@]5(C)CC[C@H](OC(=O)CC(C)(C)C(=O)O)C(C)(C)[C@@H]5CC[C@@]4(C)[C@]3(C)CC[C@@]2(C(=O)C(=O)N[C@@H](C)c2ccc(Cl)cc2)CC1=O`, the IC50 is 0.039 µM in [1], 0.474 µM in assay [2], 0.019 µM in assay [3] and 0.06 µM in assay [4].

In the case of `CC(C)C1=C2[C@H]3CC[C@@H]4[C@@]5(C)CC[C@H](OC(=O)CC(C)(C)C(=O)O)C(C)(C)[C@@H]5CC[C@@]4(C)[C@]3(C)CC[C@@]2(C(=O)C(=O)NCc2cccc(Cl)c2)CC1=O`, the IC50 in assay [1] was 0.016 µM; in assay [2] it was 0.37 µM.

`CC(C)C1=C2[C@H]3CC[C@@H]4[C@@]5(C)CC[C@H](OC(=O)CC(C)(C)C(=O)O)C(C)(C)[C@@H]5CC[C@@]4(C)[C@]3(C)CC[C@@]2(C(=O)C(=O)NCc2cccs2)CC1=O`: the IC50 in assay [1] came to 0.021 µM; in [2] it was 1.62 µM.

Turning to `CC(C)C1=C2[C@H]3CC[C@@H]4[C@@]5(C)CC[C@H](OC(=O)CC(C)(C)C(=O)O)C(C)(C)[C@@H]5CC[C@@]4(C)[C@]3(C)CC[C@@]2(C(=O)C(=O)NC2(c3ccc(Cl)cc3)CCC2)CC1=O`, the IC50 was determined as 0.029 µM in assay [1], 0.065 µM in [2], 0.017 µM in assay [3] and 0.048 µM in assay [4].

Consider `CC(C)C1=C2[C@H]3CC[C@@H]4[C@@]5(C)CC[C@H](OC(=O)CC(C)(C)C(=O)O)C(C)(C)[C@@H]5CC[C@@]4(C)[C@]3(C)CC[C@@]2(C(=O)C(=O)NCc2ccc(Cl)cc2)CC1=O`, for which the IC50 came out at 0.012 µM in [1] and 0.087 µM in [2].

As for `CC(C)C1=C2[C@H]3CC[C@@H]4[C@@]5(C)CC[C@H](OC(=O)CC(C)(C)C(=O)O)C(C)(C)[C@@H]5CC[C@@]4(C)[C@]3(C)CC[C@@]2(C(=O)C(=O)N[C@H](C)c2ccc(Cl)cc2)CC1=O`, the IC50 turned out to be 0.018 µM in assay [1], 0.025 µM in [2], 0.005 µM in assay [3] and 0.025 µM in assay [4].

Regarding `CC(C)C1=C2[C@H]3CC[C@@H]4[C@@]5(C)CC[C@H](OC(=O)CC(C)(C)C(=O)O)C(C)(C)[C@@H]5CC[C@@]4(C)[C@]3(C)CC[C@@]2(C(=O)C(=O)NCc2ccncc2)CC1=O`, the IC50 is 6.2 µM in [1] and above 10 µM in [2].

Turning to `CC(C)C1=C2[C@H]3CC[C@@H]4[C@@]5(C)CC[C@H](OC(=O)CC(C)(C)C(=O)O)C(C)(C)[C@@H]5CC[C@@]4(C)[C@]3(C)CC[C@@]2(C(=O)C(=O)NCc2ccc(F)cc2)CC1=O`, the IC50 amounted to 0.016 µM in [1] and 0.202 µM in assay [2].

As for `COc1ccc(CNC(=O)C(=O)[C@@]23CC[C@]4(C)[C@H](CC[C@@H]5[C@@]6(C)CC[C@H](OC(=O)CC(C)(C)C(=O)O)C(C)(C)[C@@H]6CC[C@]54C)C2=C(C(C)C)C(=O)C3)cc1`, the IC50 in assay [1] stood at 0.099 µM; in [2], 8 µM.

In the case of `Cc1ccc(NC(=O)C(=O)[C@@]23CC[C@]4(C)[C@H](CC[C@@H]5[C@@]6(C)CC[C@H](OC(=O)CC(C)(C)C(=O)O)C(C)(C)[C@@H]6CC[C@]54C)C2=C(C(C)C)C(=O)C3)cc1`, the figures for the IC50 in assay [1] and in assay [2] were 0.251 µM and 0.664 µM, respectively.

Regarding `CC(C)C1=C2[C@H]3CC[C@@H]4[C@@]5(C)CC[C@H](OC(=O)CC(C)(C)C(=O)O)C(C)(C)[C@@H]5CC[C@@]4(C)[C@]3(C)CC[C@@]2(C(=O)C(=O)NCc2c(Cl)cccc2Cl)CC1=O`, the IC50 worked out at 0.085 µM in assay [1] and 1.07 µM in assay [2].

For `CC(C)C1=C2[C@H]3CC[C@@H]4[C@@]5(C)CC[C@H](OC(=O)CC(C)(C)C(=O)O)C(C)(C)[C@@H]5CC[C@@]4(C)[C@]3(C)CC[C@@]2(C(=O)C(=O)N2CCC2)CC1=O`, the figures for the IC50 in assay [1] and in [2] were 5.6 µM and above 10 µM, respectively.

Turning to `CC(C)C1=C2[C@H]3CC[C@@H]4[C@@]5(C)CC[C@H](OC(=O)CC(C)(C)C(=O)O)C(C)(C)[C@@H]5CC[C@@]4(C)[C@]3(C)CC[C@@]2(C(=O)C(=O)NCc2ccccc2Cl)CC1=O`, the results for the IC50 in [1] and in assay [2] were 0.017 µM and 0.486 µM, respectively.

Consider `CC(C)C1=C2[C@H]3CC[C@@H]4[C@@]5(C)CC[C@H](OC(=O)CC(C)(C)C(=O)O)C(C)(C)[C@@H]5CC[C@@]4(C)[C@]3(C)CC[C@@]2(C(=O)C(=O)NCc2ccc(C(F)(F)F)cc2)CC1=O`, for which the IC50 in [1] came out at 0.135 µM; in assay [2], 1.31 µM.

With `CC[C@@H](NC(=O)C(=O)[C@@]12CC[C@]3(C)[C@H](CC[C@@H]4[C@@]5(C)CC[C@H](OC(=O)CC(C)(C)C(=O)O)C(C)(C)[C@@H]5CC[C@]43C)C1=C(C(C)C)C(=O)C2)c1ccc(Cl)cc1`, the IC50 in assay [1] was determined as 0.028 µM; in assay [2], 0.064 µM; in [3] it was 0.012 µM; in assay [4], 0.074 µM.

As to `CC(C)C1=C2[C@H]3CC[C@@H]4[C@@]5(C)CC[C@H](OC(=O)CC(C)(C)C(=O)O)C(C)(C)[C@@H]5CC[C@@]4(C)[C@]3(C)CC[C@@]2(C(=O)C(=O)NCC2CCCCC2)CC1=O`, the IC50 in [1] worked out at 0.011 µM; in assay [2], 0.027 µM.

In the case of `CC(C)C1=C2[C@H]3CC[C@@H]4[C@@]5(C)CC[C@H](OC(=O)CC(C)(C)C(=O)O)C(C)(C)[C@@H]5CC[C@@]4(C)[C@]3(C)CC[C@@]2(C(=O)C(=O)NCCN2CCCC2)CC1=O`, the IC50 in assay [1] is 1 µM; in [2], above 10 µM.

Regarding `CC(C)C1=C2[C@H]3CC[C@@H]4[C@@]5(C)CC[C@H](OC(=O)CC(C)(C)C(=O)O)C(C)(C)[C@@H]5CC[C@@]4(C)[C@]3(C)CC[C@@]2(C(=O)C(=O)NC(C)(C)c2ccccc2)CC1=O`, the half-inhibitory concentration (IC50) amounted to 0.018 µM in [1] and 0.019 µM in assay [2].

Consider `CC[C@H](NC(=O)C(=O)[C@@]12CC[C@]3(C)[C@H](CC[C@@H]4[C@@]5(C)CC[C@H](OC(=O)CC(C)(C)C(=O)O)C(C)(C)[C@@H]5CC[C@]43C)C1=C(C(C)C)C(=O)C2)c1ccc(Cl)cc1`, for which the IC50 in [1] came to 0.054 µM; in assay [2], 0.372 µM; in [3], 0.026 µM; in assay [4], 0.062 µM.

Regarding `CC(C)C1=C2[C@H]3CC[C@@H]4[C@@]5(C)CC[C@H](OC(=O)CC(C)(C)C(=O)O)C(C)(C)[C@@H]5CC[C@@]4(C)[C@]3(C)CC[C@@]2(C(=O)C(=O)Nc2ccc(F)cc2)CC1=O`, the figures for the IC50 in assay [1] and in [2] were 0.13 µM and 1.8 µM, respectively.

On to `C=C(C)[C@@H]1CC[C@]2(C(=O)O)CC[C@]3(C)[C@H](CC[C@@H]4[C@@]5(C)CC[C@H](OC(=O)CC(C)(C)C(=O)O)C(C)(C)[C@@H]5CC[C@]43C)[C@@H]12` [BEVIRIMAT], for which the IC50 is above 10 µM in assay [5]; 0.27 µM in [1]; 6.51 µM in [2]; above 4 µM in assay [7]; above 10 µM in assay [8]; 0.252 µM in [3]. Inhibition in assay [4] was half-maximal at 0.383 µM (IC50). Also, the inhibition entry in [6] is “Active”. The Ratio in assay [9] came to 52.

For the compound `CC(C)C1=C2[C@H]3CC[C@@H]4[C@@]5(C)CC[C@H](OC(=O)CC(C)(C)C(=O)O)C(C)(C)[C@@H]5CC[C@@]4(C)[C@]3(C)CC[C@@]2(C(=O)C(=O)NCCCN2CCCC2)CC1=O`, the IC50 is 1.18 µM in [1] and 7.5 µM in assay [2].

On to `CC(C)C1=C2[C@H]3CC[C@@H]4[C@@]5(C)CC[C@H](OC(=O)CC(C)(C)C(=O)O)C(C)(C)[C@@H]5CC[C@@]4(C)[C@]3(C)CC[C@@]2(C(=O)C(=O)NCc2ccc(Cl)cc2Cl)CC1=O`, for which the IC50 stood at 0.037 µM in assay [1] and 0.193 µM in assay [2].

Source of the values: ChEMBL document CHEMBL4024732, “Discovery of a novel and potent class of anti-HIV-1 maturation inhibitors with improved virology profile against gag polymorphisms” (Bioorg Med Chem Lett, 2017).
